Source: patent publication US10597388B2, “Pyridazinone herbicides” (FMC CORPORATION, priority 2014, dated 2020)

Key:
Type in all cases: in vivo
[1] = system: barnyardgrass (Echinochloa crus-galli); experiment: Test A greenhouse herbicide test, pre- and postemergence
Summary of the method: (§1)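 Visual injury ratings, 0 (no effect) to 100 (complete control), versus untreated plants after roughly 10 d in a greenhouse. Compounds, formulated in a surfactant-containing non-phytotoxic solvent, were sprayed on loam–sand soil after sowing (pre) or on one- to two-leaf plants 2–10 cm tall (post).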

kochia (Kochia scoparia) = experiment: as above
Summary of the method: as §1

corn (Zea mays) = experiment: Test C greenhouse herbicide test, pre- and postemergence
Summary of the method: (§2)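 Visual 0–100 injury score (100 = complete control) taken against untreated controls after 13–15 d in greenhouse. Test chemicals, formulated in solvent plus surfactant, applied preemergence to seeds in loam–sand soil or postemergence to 1- to 4-leaf plants (2–18 cm).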

[2] = system: crabgrass, large (large crabgrass, Digitaria sanguinalis); experiment: as above
Summary of the method: as §2

[3] = system: foxtail, giant (giant foxtail, Setaria faberii); experiment: as above
Summary of the method: as §2

[4] = system: johnsongrass (Sorghum halepense); experiment: as above
Summary of the method: as §2

[5] = system: lambsquarters (Chenopodium album); experiment: as above
Summary of the method: as §2

[6] = system: morningglory (Ipomoea coccinea); experiment: as above
Summary of the method: as §2

[7] = system: oilseed rape (Brassica napus); experiment: as above
Summary of the method: as §2

[8] = system: waterhemp (common waterhemp, Amaranthus rudis); experiment: as above
Summary of the method: as §2

[9] = system: wheat (winter wheat, Triticum aestivum); experiment: as above
Summary of the method: as §2

[10] = Postemergence, 125 g ai/ha, 0 to 100 scale where 0 is no effect and 100 is complete control
[11] = Postemergence, 500 g ai/ha, visual rating after approx. 10 d, 0 to 100 scale (0 no effect, 100 complete control)
[12] = Preemergence, 125 g ai/ha, 0 to 100 scale where 0 is no effect and 100 is complete control
[13] = Preemergence, 500 g ai/ha, 0 to 100 scale where 0 is no effect and 100 is complete control
[14] = Postemergence, 31 g ai/ha, scale 0 to 100 (0 no effect, 100 complete control)
[15] = Postemergence, 62 g ai/ha, 0 to 100 scale (0 no effect, 100 complete control)
[16] = Postemergence, 250 g ai/ha, scale 0 to 100, 0 no effect, 100 complete control, 13 to 15 d
[17] = Preemergence, 31 g ai/ha, scale 0 to 100, 0 is no effect, 100 is complete control
[18] = Preemergence, 62 g ai/ha, scale 0 to 100, 0 is no effect, 100 is complete control
[19] = Preemergence, 125 g ai/ha, scale 0 to 100, 0 is no effect, 100 is complete control
[20] = Preemergence, 250 g ai/ha, scale 0 to 100, 0 no effect, 100 complete control
[21] = postemergence, 125 g ai/ha, scale 0 to 100, 0 no effect, 100 complete control

SMILES: CC(=O)Oc1c(C)nn(C)c(=O)c1-c1c(C)sc2ccc(C(F)(F)F)cc12 [Compound 132]
- Plant response rating, Barnyardgrass [1, 10]: 0
- Plant response rating, Barnyardgrass [1, 11]: 30
- Barnyardgrass plant response rating [1, 12]: 0
- Plant response rating, Barnyardgrass [1, 13]: 70
- Plant response rating, Kochia (kochia (Kochia scoparia); [10]): 50
- Plant response rating, Kochia (kochia (Kochia scoparia); [11]): 80
- Kochia plant response rating (kochia (Kochia scoparia); [12]): 60
- Plant response rating, Kochia (kochia (Kochia scoparia); [13]): 90
- Plant response rating, Corn (corn (Zea mays); [14]): 0
- Corn plant response rating (corn (Zea mays); [15]): 5
- Plant response rating, Corn (corn (Zea mays); [16]): 10
- Plant response rating, Corn (corn (Zea mays); [17]): 0
- Plant response rating, Corn (corn (Zea mays); [18]): 0
- Plant response rating, Corn (corn (Zea mays); [19]): 0
- Corn plant response rating (corn (Zea mays); [20]): 10
- Corn plant response rating (corn (Zea mays); [21]): 5
- Plant response rating, Crabgrass, Large [2, 14]: 15
- Crabgrass, Large plant response rating [2, 15]: 15
- Plant response rating, Crabgrass, Large [2, 16]: 25
- Plant response rating, Crabgrass, Large [2, 17]: 0
- Plant response rating, Crabgrass, Large [2, 18]: 0
- Plant response rating, Crabgrass, Large [2, 19]: 10
- Crabgrass, Large plant response rating [2, 20]: 40
- Crabgrass, Large plant response rating [2, 21]: 10
- Plant response rating, Foxtail, Giant [3, 14]: 30
- Foxtail, Giant plant response rating [3, 15]: 40
- Plant response rating, Foxtail, Giant [3, 16]: 75
- Plant response rating, Foxtail, Giant [3, 17]: 40
- Plant response rating, Foxtail, Giant [3, 18]: 70
- Plant response rating, Foxtail, Giant [3, 19]: 85
- Foxtail, Giant plant response rating [3, 20]: 98
- Foxtail, Giant plant response rating [3, 21]: 60
- Plant response rating, Johnsongrass [4, 14]: 0
- Johnsongrass plant response rating [4, 15]: 5
- Plant response rating, Johnsongrass [4, 16]: 10
- Plant response rating, Johnsongrass [4, 17]: 15
- Plant response rating, Johnsongrass [4, 18]: 10
- Plant response rating, Johnsongrass [4, 19]: 55
- Johnsongrass plant response rating [4, 20]: 25
- Johnsongrass plant response rating [4, 21]: 5
- Plant response rating, Lambsquarters [5, 14]: 90
- Lambsquarters plant response rating [5, 15]: 90
- Plant response rating, Lambsquarters [5, 16]: 100
- Plant response rating, Lambsquarters [5, 17]: 50
- Plant response rating, Lambsquarters [5, 18]: 60
- Plant response rating, Lambsquarters [5, 19]: 85
- Lambsquarters plant response rating [5, 20]: 100
- Lambsquarters plant response rating [5, 21]: 100
- Plant response rating, Morningglory [6, 14]: 65
- Morningglory plant response rating [6, 15]: 80
- Plant response rating, Morningglory [6, 16]: 98
- Plant response rating, Morningglory [6, 17]: 40
- Plant response rating, Morningglory [6, 18]: 65
- Plant response rating, Morningglory [6, 19]: 95
- Morningglory plant response rating [6, 20]: 90
- Morningglory plant response rating [6, 21]: 95
- Plant response rating, Oilseed Rape [7, 14]: 5
- Oilseed Rape plant response rating [7, 15]: 10
- Plant response rating, Oilseed Rape [7, 16]: 40
- Plant response rating, Oilseed Rape [7, 17]: 70
- Plant response rating, Oilseed Rape [7, 18]: 85
- Plant response rating, Oilseed Rape [7, 19]: 30
- Oilseed Rape plant response rating [7, 20]: 90
- Oilseed Rape plant response rating [7, 21]: 5
- Plant response rating, Waterhemp [8, 14]: 40
- Waterhemp plant response rating [8, 15]: 60
- Plant response rating, Waterhemp [8, 16]: 75
- Plant response rating, Waterhemp [8, 17]: 90
- Plant response rating, Waterhemp [8, 18]: 85
- Plant response rating, Waterhemp [8, 19]: 95
- Waterhemp plant response rating [8, 20]: 98
- Waterhemp plant response rating [8, 21]: 80
- Plant response rating, Wheat [9, 14]: 0
- Wheat plant response rating [9, 15]: 0
- Plant response rating, Wheat [9, 16]: 0
- Plant response rating, Wheat [9, 17]: 25
- Plant response rating, Wheat [9, 18]: 40
- Plant response rating, Wheat [9, 19]: 20
- Wheat plant response rating [9, 20]: 50
- Wheat plant response rating [9, 21]: 0
